Data taken from patent US11834414B2, “1-methyl-4-[(4-phenylphenyl)sulfonylmethyl]cyclohexyanol and 1-methyl-4-[[4-(2-pyridyl)phenyl]sulfonylmethyl]cyclohexanol compounds and their therapeutic use” (Modern Biosciences Limited, priority 2018, dated 2023).
pIC50: −log10 of the molar value.

Tests used:
[1] = target: CYP2C19 (Homo sapiens (Human), UniProt P33261); assay: Human Cytochrome P450 Inhibition Assay (Bactosomes); assay type: in vitro ADME; details: recombinant Bactosomes, 10 minutes, 37° C.
[2] = target: CYP2D6 (Homo sapiens (Human), UniProt P10635); assay: as above; assay type: in vitro ADME; details: recombinant Bactosomes, 10 minutes, 37° C.
[3] = test system: collagen-induced arthritis in DBA/1j mice; assay: Mouse Collagen-Induced Arthritis; assay type: in vivo; details: 10 mg/kg/day, once daily for 14 days, arthritic index vs control
Method: Seven- to eight-week-old male DBA/1j mice were used for all procedures. Animals were housed in groups of 10, and were maintained at 21° C.±2° C. on a 12-hour light/dark cycle with food and water ad libitum. Complete Freund's adjuvant (CFA) was prepared by emulsifying bovine type II collagen at 4 mg/mL with a 4 mg/mL suspension of Mycobacterium tuberculosis H37Ra in Incomplete Freund's Adjuvant (IFA) (0.85 mL paraffin oil and 0.15 mL mannide monooleate) in a 1:1 (v/v) ratio. All mice were immunised subcutaneously with 200 μg of bovine type II collagen in CFA. 21 days later, all mice were immunised subcutaneously with 100 μg of bovine type II collagen in IFA. The mice started to develop signs and symptoms of arthritis following the ‘booster’ immunisation.
For macroscopic assessment of arthritis, the following signs were monitored in each paw of each mouse three times per week and summed to generate the Arthritic Index (AI) (the maximum AI for one animal is 16): • 0=no visible effects of arthritis. • 1=oedema and/or erythema of 1 digit. • 2=oedema and/or erythema of 2 digits. • 3=oedema and/or erythema of more than 2 digits. • 4=severe arthritis of entire paw and digits.
Animals were sorted into treatment groups with a mean arthritic index of 2.5 and then dosed once daily for 14 days with compound: by oral gavage for test compounds, or by subcutaneous injection at a dose of 10 mg/kg for the positive control, etanercept. After completion of the experiment, the mice were sacrificed.
The data were analysed by generating an average of the arthritic index across each treatment group. The mean arthritic index was then compared to the arthritic index of control (untreated) animals using the following formula to generate a percentage inhibition of disease.

[4] = target: CYP1A2 (Homo sapiens (Human), UniProt P05177); assay: Human Cytochrome P450 Inhibition Assay (Bactosomes)
[5] = test system: Thp1 human monocytic cells; assay: Thp1 Monocyte ATP Production Assay; assay type: cell-based; details: Thp1 cells, 24 hour incubation, ATPLite; 9-point range 10 μM to 10 nM, mean of 2 independent experiments
Method: In vitro potency of test compounds was determined by incubation with Thp1 human monocytic cells and subsequent determination of Adenosine TriPhosphate (ATP) levels using firefly luciferase.
ATP is present in all metabolically active cells. When cells lose integrity, their ability to synthesise ATP is rapidly lost. […] See, e.g., Kang et al., 2015; Jiang et al., 2013. Levels of ATP can be monitored using a system based on firefly (Photinus pyralis) luciferase (see, e.g., Auld et al., 2009) using commercially available kits. A system known as
ATPlite™ was using to measure effects of the test compounds on cellular viability in vitro. This one-step assay system is an adenosine triphosphate (ATP) monitoring system based on the production of light caused by the reaction of ATP from the cells with added luciferase and D-luciferin, as illustrated in the reaction scheme below:
The emitted light is proportional to the ATP concentration.
Thp1 cells were plated at 112500 cells per well in 125 μL RPMI-1640 (no glucose) with 1% FBS in 96-well plates. Test compounds were prepared as 100 mM solutions in DMSO. These stock solutions were diluted in DMSO and then diluted 1000× in culture medium (RPMI) before being added directly to the wells so as to give the desired final compound concentration. After a 24 hour incubation at 37° C./5% CO2, ATPLite™ (Perkin Elmer) was added to each well (1:10 v/v, 10 μL). The plate was then incubated at room temperature for 5 minutes and the emitted light was quantified on Viewlux with a measurement time of 0.3 seconds and binning 4×4.
The average results for each test compound were expressed as a percent (%) of the average control value reflecting cell viability. The average values across the concentrations tested were then plotted and the IC50 for was calculated by fitting the data to a 4-parameter IC50 equation using software from Graf it (Erithacus Software). Each experiment was repeated twice and the data are presented as the mean IC50 from both experiments.

[6] = test system: human hepatocytes; assay: Human hepatocyte stability; assay type: in vitro ADME; details: human hepatocytes, 1 μM, 60 minute incubation
Method: (§1) Metabolic stability of test compounds was measured by determination of the rate of disappearance of the compound when incubated in the presence of rat or human hepatocytes, a primary source of the most important enzymes (cytochrome P450s) involved in drug metabolism. Study of drug stability in the presence of primary hepatocytes is accepted as a valuable model permitting rapid prediction of in vivo drug stability.
(§2) Rat or human hepatocytes were obtained from a commercial source and viability was assessed using a trypan blue solution prior to use. Test compounds (final concentration 1 μM, 0.1% DMSO, 0.9% acetonitrile) or a marker (diclofenac or diltiazem, final assay concentration 1 μM, 0.1% DMSO, 0.9% acetonitrile) were incubated with pooled hepatocytes for a 60 minute period and samples removed at up to 6 time points and analysed by LC-MS/MS for the presence/amount of test compounds.
(§3) Each compound was incubated for 0, 5, 15, 30, 45, or 60 minutes. The reactions were stopped by the addition of methanol containing an internal standard (1 μM Tolbutamide) at the appropriate time points, mixed and placed at −20° C. for ≥1 hour to quench and allow protein to precipitate. All samples were centrifuged (2500×g, 20 minutes, 4° C.). The aliquots were analysed using LC-MS/MS. Reactions were performed in duplicate at 37° C.
(§4) Data were processed, and the results plotted as In(concentration) vs. time. The elimination rate constant (slope of the regression line, k) was calculated using the following formula, where C(t) is the concentration at time t and C(0) is the starting concentration:
(§5) The half-life (t1/2) was calculated using the following formula: […]
(§6) The intrinsic clearance (CIint) was calculated using the following formula, where [cell] is the hepatocyte concentration in the assay: […]

[7] = target: CYP2C9 (Homo sapiens (Human), UniProt P11712); assay: Human Cytochrome P450 Inhibition Assay (Bactosomes); assay type: in vitro ADME; details: recombinant Bactosomes, 10 minutes, 37° C.
[8] = target: CYP3A4 (Homo sapiens (Human), UniProt P08684); assay: as above; assay type: in vitro ADME; details: recombinant Bactosomes, 10 minutes, 37° C.
[9] = test system: rat hepatocytes; assay: Rat hepatocyte stability; assay type: in vitro ADME; details: 1 μM, 60 minute incubation
Method: as §1, §2, §3, §4, §5, §6

CYP2C19, sequence (P33261 whole entry): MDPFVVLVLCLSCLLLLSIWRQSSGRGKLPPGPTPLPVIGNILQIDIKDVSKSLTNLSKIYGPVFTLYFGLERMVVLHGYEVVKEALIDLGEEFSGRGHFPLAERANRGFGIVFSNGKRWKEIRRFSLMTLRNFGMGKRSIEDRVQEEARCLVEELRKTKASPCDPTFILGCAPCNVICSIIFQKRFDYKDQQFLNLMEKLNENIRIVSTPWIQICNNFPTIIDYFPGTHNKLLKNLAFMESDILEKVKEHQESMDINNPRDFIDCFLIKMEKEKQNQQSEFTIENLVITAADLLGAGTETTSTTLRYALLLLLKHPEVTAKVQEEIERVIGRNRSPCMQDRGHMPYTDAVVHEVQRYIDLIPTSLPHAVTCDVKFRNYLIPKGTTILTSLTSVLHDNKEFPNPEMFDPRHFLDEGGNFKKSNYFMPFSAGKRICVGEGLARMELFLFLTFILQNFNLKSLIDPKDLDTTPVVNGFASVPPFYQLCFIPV
CYP2D6, sequence (P10635 whole entry): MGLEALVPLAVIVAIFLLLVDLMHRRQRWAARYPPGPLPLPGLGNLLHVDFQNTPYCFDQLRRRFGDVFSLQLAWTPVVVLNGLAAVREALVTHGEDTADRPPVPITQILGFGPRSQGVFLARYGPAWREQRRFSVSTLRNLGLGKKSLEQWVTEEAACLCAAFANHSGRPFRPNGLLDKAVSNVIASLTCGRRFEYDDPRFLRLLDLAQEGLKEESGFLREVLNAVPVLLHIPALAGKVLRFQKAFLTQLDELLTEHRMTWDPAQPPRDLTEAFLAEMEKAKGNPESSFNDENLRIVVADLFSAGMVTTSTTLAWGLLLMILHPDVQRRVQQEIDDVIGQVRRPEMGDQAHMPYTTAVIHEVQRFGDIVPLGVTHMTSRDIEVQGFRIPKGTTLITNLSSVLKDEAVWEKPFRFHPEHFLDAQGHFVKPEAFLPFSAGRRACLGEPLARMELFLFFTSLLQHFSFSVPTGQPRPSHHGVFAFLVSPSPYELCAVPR
CYP3A4, sequence (P08684 whole entry): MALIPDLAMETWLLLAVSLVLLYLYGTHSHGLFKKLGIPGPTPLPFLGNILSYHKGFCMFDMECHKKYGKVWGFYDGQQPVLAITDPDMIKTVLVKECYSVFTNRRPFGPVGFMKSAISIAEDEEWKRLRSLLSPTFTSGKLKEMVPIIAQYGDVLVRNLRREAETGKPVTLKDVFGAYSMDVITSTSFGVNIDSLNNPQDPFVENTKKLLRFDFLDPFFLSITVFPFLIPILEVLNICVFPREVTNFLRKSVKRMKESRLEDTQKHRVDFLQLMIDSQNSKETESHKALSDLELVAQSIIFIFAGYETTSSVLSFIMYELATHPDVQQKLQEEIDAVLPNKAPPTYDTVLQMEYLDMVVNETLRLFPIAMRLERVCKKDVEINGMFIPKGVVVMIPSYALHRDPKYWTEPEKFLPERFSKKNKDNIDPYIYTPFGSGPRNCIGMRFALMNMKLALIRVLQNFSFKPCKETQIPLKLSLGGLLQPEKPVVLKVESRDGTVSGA
CYP1A2, sequence (P05177 whole entry): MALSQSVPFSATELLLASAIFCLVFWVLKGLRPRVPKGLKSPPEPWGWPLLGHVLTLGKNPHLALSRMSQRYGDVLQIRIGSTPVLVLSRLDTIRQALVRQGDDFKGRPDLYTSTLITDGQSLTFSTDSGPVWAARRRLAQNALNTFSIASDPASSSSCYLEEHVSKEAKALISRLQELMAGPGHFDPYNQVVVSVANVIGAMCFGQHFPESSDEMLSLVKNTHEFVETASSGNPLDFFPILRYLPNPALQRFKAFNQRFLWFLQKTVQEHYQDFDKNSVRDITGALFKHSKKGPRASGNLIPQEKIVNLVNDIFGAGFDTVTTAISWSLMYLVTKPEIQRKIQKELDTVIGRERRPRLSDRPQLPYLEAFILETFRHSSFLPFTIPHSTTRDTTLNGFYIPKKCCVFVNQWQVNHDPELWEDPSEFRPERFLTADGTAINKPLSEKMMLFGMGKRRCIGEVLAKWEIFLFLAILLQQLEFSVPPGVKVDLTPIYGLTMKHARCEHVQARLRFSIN
CYP2C9, sequence (P11712 whole entry): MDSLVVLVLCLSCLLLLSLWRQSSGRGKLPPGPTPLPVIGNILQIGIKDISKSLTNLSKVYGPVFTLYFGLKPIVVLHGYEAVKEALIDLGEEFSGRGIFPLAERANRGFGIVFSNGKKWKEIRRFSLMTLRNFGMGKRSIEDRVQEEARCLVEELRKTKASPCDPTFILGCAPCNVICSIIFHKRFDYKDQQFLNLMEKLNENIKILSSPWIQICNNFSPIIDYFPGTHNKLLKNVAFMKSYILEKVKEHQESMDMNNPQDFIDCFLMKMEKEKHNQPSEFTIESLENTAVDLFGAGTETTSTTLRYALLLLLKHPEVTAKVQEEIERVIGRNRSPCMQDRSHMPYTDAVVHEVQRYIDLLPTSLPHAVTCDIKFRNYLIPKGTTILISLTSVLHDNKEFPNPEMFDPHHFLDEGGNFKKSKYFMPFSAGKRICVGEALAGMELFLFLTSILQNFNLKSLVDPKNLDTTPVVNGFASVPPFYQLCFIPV

With `C[C@]1(O)CC[C@@H](NS(=O)(=O)c2ccc(-c3ccc(F)cc3F)cc2)CC1` [ABD899, reference compound] the pIC50 [1] was 5.14, the pIC50 [2] was 4.34 and the “% inhibition of disease” value [3] was 77%. The pIC50 [4] was less than 4.60, the pIC50 [5] was 6.70 and the “Human Clint (uL/min/million cells)” value [6] was 9 uL/min/million cells. For the same compound, the “Human t1/2” value [6] was 2.48 h, the pIC50 [7] was 5.41 and the pIC50 [8] was 4.67. The “Rat Clint (μL/min/million cells)” value [9] was 57 μL/min/million cells and the “Rat t1/2” value [9] was 0.4 h.
